{"source": "patent US6713043B2", "about": "(priority 1996, dated 2004)", "test_system": "M. tuberculosis (21 clinical and CDC strains, pan-sensitive and multidrug resistant)", "assay": "microbe, parasite or virus in culture", "assay_type": "cell-based, Mycobacterium tuberculosis", "data": [{"molecule": "Cc1ccc(C)c(OCCCC(C)(C)C(=O)O)c1", "note": "[GFZ, Gemfibrozil]", "values": [{"measurement": "difference in sensitivity among the 21 strains", "result": "No greater than a two fold difference"}, {"measurement": "MIC", "setting": "Mycobacterium tuberculosis, 504 h, read-out: MIC (GFZ concentration at which no growth was seen)", "result": "100 to 200", "unit": "µg/mL"}]}]}
